According to ChEMBL document CHEMBL5120838, “Synthesis and biological evaluation of geniposide derivatives as inhibitors of hyperuricemia, inflammatory and fibrosis” (Eur J Med Chem, 2022):
The source made the active and inactive calls. No cut-off for these calls is given here.

How the values were obtained:
[1] = test system: Mus musculus; experiment: Anti-hyperuricemic activity against adenine and potassium oxonate-induced hyperuricemia Kunming mouse model assessed as reduction in serum creatinine level at 20 mg/kg, po administered via gavage once daily for 2 weeks (reference value: 87.62 +/- 0.67 uM); type: functional
[2] = species: Mus musculus; conditions: Kunming, dose 20.0 mg/kg, route po, time 2.0 weeks
Description: In vivo inhibition of XOD in adenine and potassium oxonate-induced hyperuricemia Kunming mouse model assessed as reduction in XOD activity in liver at 20 mg/kg, po administered via gavage once daily for 2 weeks

[3] = test system: Mus musculus; experiment: Anti-hyperuricemic activity against adenine and potassium oxonate-induced hyperuricemia Kunming mouse model assessed as reduction in serum uric acid level at 20 mg/kg, po administered via gavage once daily for 4 weeks (reference value: 356.15 +/- 3.31 uM); type: functional
[4] = test system: Mus musculus; experiment: Anti-hyperuricemic activity against adenine and potassium oxonate-induced hyperuricemia Kunming mouse model assessed as blood urea nitrogen level at 20 mg/kg, po administered via gavage once daily for 2 weeks (reference value: 9.88 +/- 1.21 mM); type: functional
[5] = test system: Mus musculus; experiment: Anti-hyperuricemic activity against adenine and potassium oxonate-induced hyperuricemia Kunming mouse model assessed as reduction in creatinine level at 20 mg/kg, po administered via gavage once daily for 4 weeks (reference value: 76.87 +/- 0.67 uM); type: functional
[6] = test system: Mus musculus; experiment: Anti-hyperuricemic activity against adenine and potassium oxonate-induced hyperuricemia Kunming mouse model assessed as reduction in serum uric acid level at 20 mg/kg, po administered via gavage once daily for 2 weeks (reference value: 318.16 +/- 3.31 uM); type: functional
[7] = test system: Mus musculus; experiment: Renal protective activity against adenine and potassium oxonate-induced hyperuricemia Kunming mouse model assessed as reduction in urate accumulation in kidney at 20 mg/kg, po administered via gavage for 2 weeks by polarization microscopic analysis; type: functional, organism-based
[8] = test system: Mus musculus; experiment: Anti-hyperuricemic activity against adenine and potassium oxonate-induced hyperuricemia Kunming mouse model assessed as blood urea nitrogen level at 20 mg/kg, po administered via gavage once daily for 4 weeks (reference value: 15.25 +/- 1.21 mM); type: functional
[9] = test system: HK-2; experiment: Cytoprotective activity in human HK-2 cells assessed as reduction in uric acid-induced cell remodeling by inverted light microscopic analysis; type: functional, cell-based; conditions: dose 12.5-100 µM
[10] = test system: Mus musculus; experiment: In vivo inhibition of XOD in po dosed adenine and potassium oxonate-induced hyperuricemia Kunming mouse model assessed as reduction in XOD activity in liver administered via gavage once daily for 2 weeks; type: functional, organism-based; conditions: dose 5-20 mg/kg, DDE = dose-dependent effect
[11] = test system: Mus musculus; experiment: Anti-hyperuricemic activity against adenine and potassium oxonate-induced hyperuricemia Kunming mouse model assessed as reduction in serum uric acid level at 10 mg/kg, po administered via gavage once daily for 4 weeks (reference value: 356.15 +/- 3.31 uM); type: functional
[12] = test system: HK-2; experiment: Cytoprotective activity in human HK-2 cells assessed as reduction in uric acid-induced increase in branches and intracellular space by inverted light microscopic analysis; type: functional, cell-based; conditions: dose 12.5-100 µM
[13] = test system: Mus musculus; experiment: Anti-hyperuricemic activity against adenine and potassium oxonate-induced hyperuricemia Kunming mouse model assessed as blood urea nitrogen level at 5 mg/kg, po administered via gavage once daily for 4 weeks (reference value: 15.25 +/- 1.21 mM); type: functional
[14] = test system: Mus musculus; experiment: Renal protective activity against adenine and potassium oxonate-induced hyperuricemia Kunming mouse model assessed as reduction in renal inflammation by measuring reduction in NF-kappaB expression at 5 to 20 mg/kg, po administered via gavage for 2 weeks by Western blot analysis; type: functional, organism-based; conditions: dose 5-20 mg/kg
[15] = test system: Mus musculus; experiment: Renal protective activity against adenine and potassium oxonate-induced hyperuricemia Kunming mouse model assessed as reduction in IL-8 expression in kidney at 5 to 20 mg/kg, po administered via gavage for 2 weeks by ELISA relative to control; type: functional; set-up: scale not given: the % may be the effect or the level left; conditions: dose 5-20 mg/kg
[16] = test system: Mus musculus; experiment: Anti-hyperuricemic activity against adenine and potassium oxonate-induced hyperuricemia Kunming mouse model assessed as reduction in serum uric acid level at 5 mg/kg, po administered via gavage once daily for 4 weeks (reference value: 356.15 +/- 3.31 uM); type: functional
[17] = biological target: T1, Xanthine dehydrogenase/oxidase (Bos taurus, UniProt P80457); experiment: Inhibition of bovine XOD assessed as inhibition of uric acid formation using xanthine as substrate preincubated with enzyme for 5 mins followed by substrate addition and measured for 30 mins by microplate reader analysis
[18] = test system: Mus musculus; experiment: Renal protective activity against adenine and potassium oxonate-induced hyperuricemia Kunming mouse model assessed as reduction in IL-1beta expression in kidney at 5 to 20 mg/kg, po administered via gavage for 2 weeks by ELISA relative to control; type: functional; set-up: scale not given: the % may be the effect or the level left; conditions: dose 5-20 mg/kg
[19] = test system: Mus musculus; experiment: Renal protective activity against adenine and potassium oxonate-induced hyperuricemia Kunming mouse model assessed as reduction in renal inflammation by measuring reduction in TNF-alpha expression at 5 to 20 mg/kg, po administered via gavage for 2 weeks by Western blot analysis; type: functional, organism-based; conditions: dose 5-20 mg/kg
[20] = test system: Mus musculus; experiment: (§1) Renal protective activity against adenine and potassium oxonate-induced hyperuricemia Kunming mouse model assessed as reduction in hyperuricemia-induced renal fibrosis by measuring reduction in alpha-SMA expression in kidney at 5 to 20 mg/kg, po administered via gavage for 2 weeks by immunoblot analysis; type: functional, organism-based; conditions: dose 5-20 mg/kg
[21] = biological target: T1, Xanthine dehydrogenase/oxidase; experiment: Mixed type inhibition of bovine XOD assessed as decrease in Vmax with increase in Km at upto 20 uM using varying levels of xanthine as substrate by Lineweaver-Burk plot analysis; conditions: cattle
[22] = Stability in simulated intestinal fluid assessed as parent compound remaining incubated for 4 hrs by HPLC analysis; type: ADME; conditions: read-out: Stability
[23] = test system: HK-2; experiment: Antiinflammatory activity in hyperuricemic human HK-2 cells assessed as reduction in IL-1beta level at 12.5 to 100 uM; type: functional, cell-based; conditions: dose 12.5-100 µM
[24] = Stability in simulated gastric fluid assessed as parent compound remaining incubated for 4 hrs by HPLC analysis; type: ADME; conditions: read-out: Stability
[25] = test system: Mus musculus; experiment: (§2) Nephroprotective activity against adenine and potassium oxonate-induced hyperuricemia Kunming mouse model assessed as reduction in neutrophils infiltrations at 20 mg/kg, po administered via gavage and measured after 21 days by hematoxylin-eosin and Masson trichrome staining based optical microscopic analysis; type: functional, organism-based; conditions: time 21.0 day
[26] = test system: Mus musculus; experiment: (§3) Renal protective activity against adenine and potassium oxonate-induced hyperuricemia Kunming mouse model assessed as reduction in extracellular matrix protein deposition by measuring interstitial expansion with collagen accumulation at 5 to 20 mg/kg, po administered via gavage for 2 weeks by Masson trichrome staining based optical microscopic analysis; type: functional, organism-based; conditions: dose 5-20 mg/kg
[27] = test system: Mus musculus; experiment: Renal protective activity against po dosed adenine and potassium oxonate-induced hyperuricemia Kunming mouse model assessed as reduction in TGF-beta1 expression in kidney administered via gavage for 2 weeks by immunohistochemical staining based optical microscopic analysis; type: functional, organism-based; conditions: dose 5-20 mg/kg, DDE = dose-dependent effect
[28] = test system: Mus musculus; experiment: as §2, with “cytoplasmic vacuolation of renal tubular epithelial cells” for “neutrophils infiltrations”; type: functional, organism-based; conditions: time 21.0 day
[29] = test system: Mus musculus; experiment: as §1, with “collagen-1” for “alpha-SMA”; type: functional, organism-based; conditions: dose 5-20 mg/kg
[30] = test system: Mus musculus; experiment: as §2, with “connective tissue hyperplasia” for “neutrophils infiltrations”; type: functional, organism-based; conditions: time 21.0 day
[31] = test system: Mus musculus; experiment: Renal protective activity against adenine and potassium oxonate-induced hyperuricemia Kunming mouse model assessed as reduction in renal inflammation by measuring reduction in IkappaBalpha expression at 5 to 20 mg/kg, po administered via gavage for 2 weeks by Western blot analysis; type: functional, organism-based; conditions: dose 5-20 mg/kg
[32] = test system: HK-2; experiment: Antiinflammatory activity in hyperuricemic human HK-2 cells assessed as reduction in TNF-alpha level at 12.5 to 100 uM; type: functional, cell-based; conditions: dose 12.5-100 µM
[33] = test system: HK-2; experiment: Inhibition of epithelial-mesenchymal transition in human HK-2 cells assessed as downregulation of uric acid-induced alpha-SMA protein expression by Western blot analysis; type: functional, cell-based; conditions: dose 12.5-100 µM, DDE = dose-dependent effect
[34] = test system: HK-2; experiment: Antiinflammatory activity in hyperuricemic human HK-2 cells assessed as reduction in TGF-beta level at 12.5 to 100 uM; type: functional, cell-based; conditions: dose 12.5-100 µM
[35] = test system: Mus musculus; experiment: Anti-hyperuricemic activity against adenine and potassium oxonate-induced hyperuricemia Kunming mouse model assessed as blood urea nitrogen level at 10 mg/kg, po administered via gavage once daily for 4 weeks (reference value: 15.25 +/- 1.21 mM); type: functional
[36] = test system: Mus musculus; experiment: Anti-hyperuricemic activity against adenine and potassium oxonate-induced hyperuricemia Kunming mouse model assessed as reduction in creatinine level at 10 mg/kg, po administered via gavage once daily for 4 weeks (reference value: 76.87 +/- 0.67 uM); type: functional
[37] = test system: HK-2; experiment: Inhibition of epithelial-mesenchymal transition in human HK-2 cells assessed as downregulation of uric acid-induced collagen-1 protein expression by Western blot analysis; type: functional, cell-based; conditions: dose 12.5-100 µM, DDE = dose-dependent effect
[38] = test system: Mus musculus; experiment: as §2, with “appearance of clear tubular structures” for “reduction in neutrophils infiltrations”; type: functional, organism-based; conditions: time 21.0 day
[39] = test system: Mus musculus; experiment: as §2, with “renal tubule dilation” for “neutrophils infiltrations”; type: functional, organism-based; conditions: time 21.0 day
[40] = test system: Mus musculus; experiment: Renal protective activity against adenine and potassium oxonate-induced hyperuricemia Kunming mouse model assessed as reduction in TNF-alpha expression in kidney at 5 to 20 mg/kg, po administered via gavage for 2 weeks by ELISA; type: functional, organism-based; conditions: dose 5-20 mg/kg
[41] = test system: Mus musculus; experiment: as §3, with “hyperuricemia-induced renal fibrosis” for “extracellular matrix protein deposition”, “tubular dilation” for “interstitial expansion”, “epithelial atrophy” for “collagen accumulation”; type: functional, organism-based; conditions: dose 5-20 mg/kg
[42] = test system: Mus musculus; experiment: Renal protective activity against po dosed adenine and potassium oxonate-induced hyperuricemia Kunming mouse model assessed as reduction in urate accumulation in kidney administered via gavage for 2 weeks by polarization microscopic analysis; type: functional, organism-based; conditions: dose 5-20 mg/kg, DDE = dose-dependent effect
[43] = test system: Mus musculus; experiment: as §2, with “tubular-interstitial lesion development” for “neutrophils infiltrations”; type: functional, organism-based; conditions: time 21.0 day
[44] = test system: Mus musculus; experiment: Renal protective activity against adenine and potassium oxonate-induced hyperuricemia Kunming mouse model assessed as reduction in renal inflammation by measuring reduction in TLR4 expression at 5 to 20 mg/kg, po administered via gavage for 2 weeks by Western blot analysis; type: functional, organism-based; conditions: dose 5-20 mg/kg
[45] = test system: Mus musculus; experiment: Anti-hyperuricemic activity against adenine and potassium oxonate-induced hyperuricemia Kunming mouse model assessed as reduction in creatinine level at 5 mg/kg, po administered via gavage once daily for 4 weeks (reference value: 76.87 +/- 0.67 uM); type: functional

T1 sequence (P80457 whole entry): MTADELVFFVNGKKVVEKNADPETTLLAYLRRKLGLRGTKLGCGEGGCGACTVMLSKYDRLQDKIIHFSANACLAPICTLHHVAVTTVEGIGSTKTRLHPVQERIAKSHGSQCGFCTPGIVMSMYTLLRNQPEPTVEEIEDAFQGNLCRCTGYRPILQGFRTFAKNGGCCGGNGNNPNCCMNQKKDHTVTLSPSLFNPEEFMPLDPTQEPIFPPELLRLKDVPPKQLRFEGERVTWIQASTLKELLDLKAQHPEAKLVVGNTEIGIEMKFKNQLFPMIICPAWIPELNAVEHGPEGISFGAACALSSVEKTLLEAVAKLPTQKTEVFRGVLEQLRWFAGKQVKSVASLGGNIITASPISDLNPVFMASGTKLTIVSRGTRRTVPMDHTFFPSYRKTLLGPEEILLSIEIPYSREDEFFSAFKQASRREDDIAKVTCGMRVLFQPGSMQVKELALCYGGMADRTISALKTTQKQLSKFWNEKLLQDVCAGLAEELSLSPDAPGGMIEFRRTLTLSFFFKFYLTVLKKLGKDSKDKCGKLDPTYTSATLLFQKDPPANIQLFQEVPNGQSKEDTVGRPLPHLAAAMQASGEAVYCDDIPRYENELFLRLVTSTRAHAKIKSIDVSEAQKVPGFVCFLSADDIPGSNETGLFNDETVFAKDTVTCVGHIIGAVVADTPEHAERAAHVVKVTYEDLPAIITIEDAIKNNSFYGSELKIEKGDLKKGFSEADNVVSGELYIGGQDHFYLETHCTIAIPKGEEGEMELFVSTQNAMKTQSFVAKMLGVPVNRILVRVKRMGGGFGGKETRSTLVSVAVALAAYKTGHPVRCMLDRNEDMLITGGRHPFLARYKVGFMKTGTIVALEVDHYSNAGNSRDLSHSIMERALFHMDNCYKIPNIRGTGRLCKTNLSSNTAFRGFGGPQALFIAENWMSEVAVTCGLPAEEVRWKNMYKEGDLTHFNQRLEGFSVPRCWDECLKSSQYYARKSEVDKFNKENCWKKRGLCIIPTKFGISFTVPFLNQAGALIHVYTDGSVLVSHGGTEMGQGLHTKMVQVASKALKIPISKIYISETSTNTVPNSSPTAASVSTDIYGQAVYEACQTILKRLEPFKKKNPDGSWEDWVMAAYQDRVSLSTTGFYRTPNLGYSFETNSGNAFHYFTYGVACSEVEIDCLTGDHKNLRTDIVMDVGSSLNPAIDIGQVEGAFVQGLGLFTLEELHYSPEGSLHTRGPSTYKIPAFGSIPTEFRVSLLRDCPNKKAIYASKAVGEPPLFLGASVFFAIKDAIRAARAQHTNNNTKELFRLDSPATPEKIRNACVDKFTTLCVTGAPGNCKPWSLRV

In the case of `Oc1ncnc2[nH]ncc12` [ALLOPURINOL], the Activity [1] is reported as 63.31 µM, the inhibition [2] is reported as “Active” and the Activity [3] is reported as 193.68 µM. It also gave an Activity [4] of 6.3 mM, an Activity [5] of 47.26 µM and an Activity [6] of 233.62 µM. The Activity [7] was “Active” and the Activity [8] was 12.58 mM.

For `CC(=O)OCC1=CC[C@@H]2C(C(=O)Nc3ncco3)=CO[C@@H](O[C@@H]3O[C@H](COC(C)=O)[C@@H](OC(C)=O)[C@H](OC(C)=O)[C@H]3OC(C)=O)[C@H]12`, the Activity [9] was “Active”, the inhibition [10] was “Dde” and the Activity [11] was 188.16 µM. For the same compound, the Activity [12] was “Active”, the Activity [13] was 10.05 mM and the Activity [14] was “Active”. It also gave an Activity [1] of 29.08 µM, an Activity [15] greater than 50% and an Activity [16] of 198.27 µM. The IC50 [17] was 1370 nM, the Activity [18] was greater than 50% and the Activity [19] was “Active”. The Activity [20] was “Active”, the “inhibition (INH)” value [21] was “Active” and the remaining at 4 h [22] was 53.3%. For the same compound, the Activity [23] was “Active”, the Activity [3] was 182.66 µM and the remaining at 4 h [24] was 47.6%. For the same compound, the Activity [25] was “Active”, the Activity [26] was “Active” and the Activity [27] was “Dde”. For the same compound, the Activity [4] was 5.62 mM, the Activity [5] was 38.81 µM and the Activity [28] was “Active”. The Activity [29] was “Active”, the Activity [30] was “Active” and the Activity [31] was “Active”. The Activity [32] was “Active”, the inhibition [33] was “Dde” and the Activity [34] was “Active”. The Activity [35] was 8.82 mM, the Activity [36] was 47.17 µM and the inhibition [37] was “Dde”. For the same compound, the Activity [38] was “Active”, the Activity [39] was “Active” and the Activity [40] was “Active”. The Activity [6] was 235.87 µM, the Activity [41] was “Active” and the Activity [8] was 8.02 mM. The Activity [42] was “Dde”, the Activity [43] was “Active” and the Activity [44] was “Active”. It also gave an Activity [45] of 54.79 µM.

In the case of `CC(=O)OCC1=CC[C@@H]2C(C(=O)Nc3ccc(C#N)cc3)=CO[C@@H](O[C@@H]3O[C@H](COC(C)=O)[C@@H](OC(C)=O)[C@H](OC(C)=O)[C@H]3OC(C)=O)[C@H]12`, the Activity [1] is reported as 89.09 µM, the IC50 [17] is reported as 1860 nM and the Activity [25] is reported as “Active”. The Activity [4] was 7.29 mM, the Activity [28] was “Active” and the Activity [30] was “Active”. For the same compound, the Activity [38] was “Active”, the Activity [39] was “Active” and the Activity [6] was 244.57 µM. The Activity [43] was “Active”.
